The results in this text go back to paper PMC11649784, “Re-design and evaluation of diclofenac-based carborane-substituted prodrugs and their anti-cancer potential” (Scientific Reports, 2024).

Test [1] concerns human fetal lung fibroblast cell line MRC-5. The experiment in a line: Viability of non-malignant MRC-5 cells. In kind it is cell-based. Conditions: column head not given. The method, then:
The biological study was performed on a murine colon adenocarcinoma cell line (MC38), two human colorectal carcinoma cell lines (HCT116 and HT29), and a human fetal lung fibroblast cell line (MRC-5). All cell lines are commercially available and were obtained from the American Type Culture Collection (ATCC). The human cell lines were kept in HEPES-buffered RPMI-1640 medium supplemented with 10 [drawing 141] heat-inactivated FCS, 2 mM L-glutamine, 0.01 [drawing 142] sodium pyruvate, penicillin (100 units mL^−1), and, streptomycin ( [drawing 143] mL^-1). The MC38 cell line was maintained in DMEM medium additionally supplemented with 1 [drawing 144] non-essential amino acids. Cells were grown at [drawing 145] in a humidified atmosphere with 5 [drawing 146] [drawing 147] . Peritoneal exudate cells (PECs) were isolated from healthy C57BL/6 mice (males, n = 3, 3 months old, weight 22–25 g) by performing an ice-cold PBS peritoneal lavage. Mice were sacrificed by cervical dislocation. Cells were cultivated for 4 h when nonadherent population was removed by washing in PBS, and additionally cultivated overnight in HEPES-buffered RPMI-1640 medium supplemented with 5 [drawing 148] heat-inactivated FCS before treatment with experimental drugs. […]
After 72 h, cell viability was determined using MTT and CV tests. […] For both viability tests, the absorbance of the developed colors was measured using an automated microplate reader at 570 nm with a reference wavelength of 670 nm. The results were expressed as a percentage of the control values of the untreated cells, which were arbitrarily set at 100 [drawing 160] . IC50 values, defined as 50 [drawing 161] inhibitory concentration, were calculated using a four-parameter logistic function and presented as mean±SD. […] To evaluate the nature of the detected autophagy, a combined treatment with compound 3 and the autophagy inhibitors chloroquine (Chlq) and 3-methyladenine (3-MA) was carried out. […] After 72 h, cell viability was determined by CV assay.

Another test relates to HCT116 cells. The experiment in a line: MTT viability assay, HCT116. In kind it is cell-based, human. The note with it: 72 h, mean±SD; read-out: IC50 [μM] (n = 3) HCT116 MTT. The method, then: In a preliminary test, the stability of all compounds dissolved in the cell medium (c = 100 μM, T = [drawing 47] ) for 72 h was validated by HPLC (see Supporting Information). Cell lines were incubated with the respective compounds in a concentration range of 1.56–100 μM for 72 h, and cell viability was measured using 3-(4,5-dimethylthiazol-2-yl)-2,5-diphenyltetrazolium bromide (MTT) and crystal violet (CV) assays. […] As MTT tests gave inconsistent results, possibly due to interference of the compound with mitochondrial respiration, for the further evaluation only the CV results are considered[97],[98].
The biological study was performed on a murine colon adenocarcinoma cell line (MC38), two human colorectal carcinoma cell lines (HCT116 and HT29), and a human fetal lung fibroblast cell line (MRC-5). All cell lines are commercially available and were obtained from the American Type Culture Collection (ATCC). The human cell lines were kept in HEPES-buffered RPMI-1640 medium supplemented with 10 [drawing 141] heat-inactivated FCS, 2 mM L-glutamine, 0.01 [drawing 142] sodium pyruvate, penicillin (100 units mL^−1), and, streptomycin ( [drawing 143] mL^-1). The MC38 cell line was maintained in DMEM medium additionally supplemented with 1 [drawing 144] non-essential amino acids. Cells were grown at [drawing 145] in a humidified atmosphere with 5 [drawing 146] [drawing 147] . Peritoneal exudate cells (PECs) were isolated from healthy C57BL/6 mice (males, n = 3, 3 months old, weight 22–25 g) by performing an ice-cold PBS peritoneal lavage. Mice were sacrificed by cervical dislocation. Cells were cultivated for 4 h when nonadherent population was removed by washing in PBS, and additionally cultivated overnight in HEPES-buffered RPMI-1640 medium supplemented with 5 [drawing 148] heat-inactivated FCS before treatment with experimental drugs. Animal handling and protocol for isolation of PECs were performed according to European Union rules, and the ARRIVE guidelines 2.0.
For the viability tests, MC38, HCT116, and HT29 cells were seeded in 96-well plates at a density of 2 [drawing 149] 103, 5 [drawing 150] 103, and 6 [drawing 151] 10^3 cells/well, respectively. To determine whether the drug affected the viability of healthy, non-malignant cells, MRC-5 and PECs were seeded in 96-well plates at a density of 8 [drawing 152] 103 and 2 [drawing 153] 10^5 cells/well, respectively. For the flow cytometric analyses, MC38 cells were seeded in 6-well plates at 5 [drawing 154] 10^4 cells/well. For morphological assessment of nuclei and the detection of autophagy, MC38 cells were seeded in 2-well chamber slides at 1.5 [drawing 155] 10^4 cells/well.
After 72 h, cell viability was determined using MTT and CV tests. First, the supernatant from the wells was discarded and the cells were incubated with an MTT solution (0.5 mg mL^−1). After half an hour, the purple formazan crystals formed were dissolved in DMSO. For CV staining of the cells, the cells were fixed with 4 [drawing 157] PFA for 10 min and then stained with a 0.02 [drawing 158] CV solution for 15 min, all at room temperature (RT). The cells were then washed with tap water, air-dried and the dye was dissolved in 33 [drawing 159] acetic acid. For both viability tests, the absorbance of the developed colors was measured using an automated microplate reader at 570 nm with a reference wavelength of 670 nm. The results were expressed as a percentage of the control values of the untreated cells, which were arbitrarily set at 100 [drawing 160] . IC50 values, defined as 50 [drawing 161] inhibitory concentration, were calculated using a four-parameter logistic function and presented as mean±SD. All biological experiments were performed in triplicates. To evaluate the nature of the detected autophagy, a combined treatment with compound 3 and the autophagy inhibitors chloroquine (Chlq) and 3-methyladenine (3-MA) was carried out. […] After 72 h, cell viability was determined by CV assay.

With “1-[2-(7,8-dicarba-nido-undecaborate)]- [drawing 126] H-indolium-2-amine [compound 3]”, the “Selectivity index (IC50 value of primary vs. cancer cells), MRC-5, second cancer cell line column” value in test [1] (presumably HCT116) worked out at 1.5. In addition, in test [1] (presumably HT29), the “Selectivity index (IC50 value of primary vs. cancer cells), MRC-5, third cancer cell line column” value was 0.98. Moreover, in test [1] (presumably MC38), the “Selectivity index (IC50 value of primary vs. cancer cells), MRC-5, first cancer cell line column” value stood at 1.81. Also, the IC50 with HCT116 cells was found to be 6.9 ± 1.5 µM.
